Data from patent US20140179619A1, “POLYPEPTIDE, NUCLEOTIDE SEQUENCE THEREOF, AND METHOD FOR USING THE SAME FOR PREVENTING DNA SYNTHESIS AND INHIBITING CELL PROLIFERATION” (Wuhan Yicheng Biotech, Inc., priority 2011, published 2014).
No end group written: not given here.

Tests used:
[1] = tested on: human granulocytic leukemia cells K562; test: Growth of human leukemia tumor in mice; conditions: K562 subcutaneous in mice, tumor weight vs control, injection every other day 7 times, after two weeks; PTD-P15 1 mg, Glivec 10 mcg
Text: After 5×10^6human granulocytic leukemia cells K562 injected into the subcutaneous tissue of mice, the mice were randomly divided into five groups. […] After two weeks, the mice were killed, from which the tumors grown in the subcutaneous tissue of the mice were taken out and weighed.

[2] = tested on: NIH/3T3; test: Cell cycle distribution by FCM of GFP-positive transfected cells; format: cell-based
Procedure: (§1) The impact of P15 on cell proliferation is tested with NIH/3T3 (fibroblast and eptithlial cells, purchased from American ATCC, Cat No. CRL-1658) and MCF-7 (breast cancer cell line, purchased from American ATCC, Cat No. HTB-22).
(§2) Plasmid used for experiment: pEGFP-P15 (to express fused protein P15-GFP); control plasmid: pEGFP-N1
(§3) After the plasmid for transfection and the lipofectamine reagent (purchased from American Invitrogen, Cat No. 11668) were mixed, the mixture stayed for 15 minutes at room temperature. Then the mixture was first introduced into cells (with a cell density of about 50%) cultured in DMEM without serum for 5 hours of cultivation at 37° C. and next into SBF with a mass concentration of 10% for 48 hours of cultivation. […] In addition, by the use of FCM, it was easy to separate and purify the positive fluorescent protein cells. The symbolic indicators to test cell proliferation such as cell cycle were used to study and testify the impact of P15 on cell proliferation, while in these experiments, only the cells that express fluorescent proteins were used as control group.
(§4) First, we used the above mentioned plasmid to transfect 3T3 and MCF7, and used FCM to sort the positive GFP cells transfected with DNA and analyzed the cycle distribution of these cells two days later.

[3] = tested on: MCF-7 (breast cancer cell line); test: as above; format: cell-based; conditions: Cells MCF7, GFP-positive cells sorted two days after transfection
Procedure: as §1, §2, §3, §4

[4] = tested on: Cells 3T3; test: BrdU penetration in DNA (DNA synthesis) in transfected cells; format: cell-based
Procedure: (§5) DNA synthesis is the symbol of cell proliferation. In the next experiment, we tested the impact of P15 on DNA synthesis. Within the 15 hours after 3T3 and MCF7 transfecting pEGFP-N 1 and expressing P15-GFP plasmid for two days, the BrdU labeled […] that can penetrate in the newly synthesized DNA chain were added in cell culture fluid. The positive GFP cells in plasmid were detected and transfected with immunofluorescence technique, and the positive rate of BrdU penetration in DNA (this reflects the rate of DNA synthesis) was ascertained.

[5] = tested on: Cells MCF7; test: as above; format: cell-based
Procedure: as §5

[6] = Cells 3T3, GFP-positive cells sorted two days after transfection

## Cc1ccc(NC(=O)c2ccc(CN3CCN(C)CC3)cc2)cc1Nc1nccc(-c2cccnc2)n1 [Glivec]
[1]
  Inhibition ratio: 48%

## P15-GFP: fused protein consisted of P15 and GFP, P15 connected to the end N of GFP, expressed from plasmid pEGFP-P15 (MPYSTELIFYIEMDP-{GFP})
[2]; [6]
  G0/G1: 52.1%
  G2/M: 25.7%
  S: 22.1%
[3]
  G0/G1: 85.6%
  G2/M: 3.3%
  S: 11.1%
[4]; Cells 3T3, BrdU 15 hours, two days after transfection
  Positive BrdU cells: 12.5%
[4]; Cells 3T3, DNA synthesis, relative to GFP
  Inhibition ratio: 76.8%
[5]; Cells MCF7, BrdU 15 hours, two days after transfection
  Positive BrdU cells: 5.2%
[5]; Cells MCF7, DNA synthesis, relative to GFP
  Inhibition ratio: 83.4%

## asparaginic acid-arginine-arginine-asparaginic acid-leucine-tyrosine-asparaginic acid-asparaginic acid-asparaginic acid-asparaginic acid-lysine-asparaginic acid-arginine-methionine-alanine-glycine-threonine-methionine [Control polypeptide]
[1]
  Inhibition ratio: −2%

## methionine-proline-tyrosine-serine-threonine-glutamic acid-leucine-isoleucine-phenylalanine-tyrosine-isoleucine-glutamic acid-methionine-asparaginic acid-proline [P15]
[2]; expression of P15 in 3T3 and MCF7
  impact on cell apoptosis: no obvious impact on cell apoptosis
